Assay results as given in patent US20240209028A1, “CNP COMPOUNDS” (priority 2022, published 2024).
Starred links: 1 amine or outer side, 2 acyl side, 3 side chain; linkers in the order of their positions; H or OH if unused. Positions of bridges follow the written chain, without caps; N, C: chain ends. Residues, ends and D or L forms follow the SMILES beside them. *: point of attachment. C18 diacid = O=C(O)CCCCCCCCCCCCCCCCC(=O)*; γGlu = O=C(O)[C@H](CCC(=O)[*:2])N[*:1]; AEEA = NCCOCCOCC(=O)O

Molecular target: T1, human natriuretic peptide receptor 2 (hNPR2) (Homo sapiens, UniProt P20594)
T1 construct: expressed in transfected cells; host or cells: HEK293 (ATCC CRL-1573), clone 35, co-transfected with pGloSensor-42F
T1 sequence (P20594 23-1047): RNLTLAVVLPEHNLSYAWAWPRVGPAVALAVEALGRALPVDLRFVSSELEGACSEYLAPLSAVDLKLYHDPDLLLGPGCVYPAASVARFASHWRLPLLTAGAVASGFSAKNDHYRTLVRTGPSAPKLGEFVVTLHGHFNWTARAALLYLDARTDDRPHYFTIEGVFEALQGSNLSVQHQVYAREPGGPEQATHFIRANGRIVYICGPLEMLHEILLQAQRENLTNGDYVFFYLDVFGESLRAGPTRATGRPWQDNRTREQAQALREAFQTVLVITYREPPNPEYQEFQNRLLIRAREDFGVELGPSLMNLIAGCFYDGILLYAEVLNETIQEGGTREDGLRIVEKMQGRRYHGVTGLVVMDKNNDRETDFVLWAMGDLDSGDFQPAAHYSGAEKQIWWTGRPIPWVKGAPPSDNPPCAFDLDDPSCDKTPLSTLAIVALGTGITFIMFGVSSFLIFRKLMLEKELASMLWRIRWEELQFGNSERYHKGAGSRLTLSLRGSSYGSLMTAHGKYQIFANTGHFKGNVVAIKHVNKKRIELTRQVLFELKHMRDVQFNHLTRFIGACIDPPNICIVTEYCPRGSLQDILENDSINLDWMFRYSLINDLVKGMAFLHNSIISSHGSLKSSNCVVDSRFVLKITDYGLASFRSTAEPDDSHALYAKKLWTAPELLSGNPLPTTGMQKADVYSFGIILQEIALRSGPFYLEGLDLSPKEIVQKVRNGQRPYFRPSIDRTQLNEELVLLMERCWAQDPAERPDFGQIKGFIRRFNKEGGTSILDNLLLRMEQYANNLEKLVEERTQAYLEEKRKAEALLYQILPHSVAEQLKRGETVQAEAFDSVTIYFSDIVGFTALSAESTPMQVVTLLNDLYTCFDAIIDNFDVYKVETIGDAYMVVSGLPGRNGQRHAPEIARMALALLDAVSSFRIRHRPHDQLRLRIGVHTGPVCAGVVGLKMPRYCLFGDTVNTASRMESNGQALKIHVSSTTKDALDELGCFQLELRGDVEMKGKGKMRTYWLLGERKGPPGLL
Experiment: In vitro hNPR2 activity assay (cGMP GloSensor reporter, HEK293)
Assay type: cell-based
Conditions: for hNPR2 0% HSA. [EC50% rel CNP]: potency relative to CNP22 (0065); for EC50: 0% HSA, HEK293-hNPR2/GloSensor cells
Outline: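 Potency is the EC50 from a four-parameter logistic fit, also expressed relative to the in-plate CNP22 control (×100), with at least two replicates. Compounds (ten concentrations, […], HSA-free diluent with 1% OVA, 0.01% Tween20) were incubated 30 min at 37 °C on HEK293 cells co-expressing hNPR2 and a GloSensor cGMP luciferase. Luminescence detected with Bright-Glo.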

CC[C@H](C)[C@@H]1NC(=O)[C@H](CCCNC(=N)N)NC(=O)[C@H](CC(=O)O)NC(=O)[C@H](CC(C)C)NC(=O)[C@@H]2CCCN2C(=O)[C@H](CC(C)C)NC(=O)CNC(=O)[C@H](Cc2ccccc2)NC(=O)[C@@H](NC(=O)CNC(=O)[C@H](CCC(N)=O)NC(=O)[C@H](CO)NC(=O)[C@H](CC(C)C)NC(=O)CNC(=O)[C@H](CCCCN)NC(=O)[C@H](CCCCN)NC(=O)[C@H](CCC(N)=O)NC(=O)[C@H](C)NC(=O)CNC(=O)[C@H](CCCCN)NC(=O)[C@H](Cc2ccc(O)cc2)NC(=O)[C@H](CCCCN)NC(=O)[C@H](CCCNC(=N)N)NC(=O)[C@H](C)NC(=O)COCCOCCNC(=O)COCCOCCNC(=O)COCCOCCNC(=O)COCCOCCNC(=O)CC[C@H](NC(=O)CC[C@H](NC(=O)CC[C@H](NC(=O)CC[C@H](NC(=O)CCCCCCCCCCCCCCCCC(=O)O)C(=O)O)C(=O)O)C(=O)O)C(=O)O)CSSC[C@@H](C(=O)O)NC(=O)CNC(=O)[C@H](CC(C)C)NC(=O)CNC(=O)[C@H](CO)NC(=O)[C@H](CC(C)C)NC(=O)[C@H](CO)NC(=O)CNC1=O [compound 1454] ({C18 diacid-γGlu-γGlu-γGlu-γGlu-AEEA-AEEA-AEEA-AEEA}-ARKYKGAQKKGLSQGCFGLPLDRIGSLSGLGC-OH; disulfide 16-32; C-terminus assumed) was tested, and the “hNPR2 0% HSA. [EC50% rel CNP]” value was 63.6%.
For CC[C@H](C)[C@@H]1NC(=O)[C@H](CCCNC(=N)N)NC(=O)[C@H](CC(=O)O)NC(=O)[C@H](CC(C)C)NC(=O)[C@@H]2CCCN2C(=O)[C@H](CC(C)C)NC(=O)CNC(=O)[C@H](Cc2ccccc2)NC(=O)[C@@H](NC(=O)CNC(=O)[C@H](CO)NC(=O)[C@H](CO)NC(=O)[C@@H](NC(=O)CNC(=O)[C@@H](NC(=O)[C@H](Cc2c[nH]cn2)NC(=O)[C@H](CCC(N)=O)NC(=O)[C@H](C)NC(=O)CNC(=O)[C@H](Cc2c[nH]cn2)NC(=O)[C@H](Cc2ccc(O)cc2)NC(=O)[C@H](CCCCN)NC(=O)[C@H](CCCNC(=N)N)NC(=O)[C@H](C)NC(=O)COCCOCCNC(=O)COCCOCCNC(=O)CC[C@H](NC(=O)CC[C@H](NC(=O)CC[C@H](NC(=O)CCCCCCCCCCCCCCCCC(=O)O)C(=O)O)C(=O)O)C(=O)O)[C@@H](C)O)C(C)C)CSSC[C@@H](C(=O)O)NC(=O)CNC(=O)[C@H](CC(C)C)NC(=O)CNC(=O)[C@H](CO)NC(=O)[C@H](CC(C)C)NC(=O)[C@H](CO)NC(=O)CNC1=O [compound 1449] ({C18 diacid-γGlu-γGlu-γGlu-AEEA-AEEA}-ARKYHGAQHTGVSSGCFGLPLDRIGSLSGLGC-OH; disulfide 16-32; C-terminus assumed), the “hNPR2 0% HSA. [EC50% rel CNP]” value was 110.0%.
CC[C@H](C)[C@@H]1NC(=O)[C@H](CCCNC(=N)N)NC(=O)[C@H](CC(=O)O)NC(=O)[C@H](CC(C)C)NC(=O)[C@H](CCCCN)NC(=O)[C@H](CC(C)C)NC(=O)CNC(=O)[C@H](Cc2ccccc2)NC(=O)[C@@H](NC(=O)CNC(=O)[C@H](CCCCN)NC(=O)[C@H](CO)NC(=O)[C@H](CC(C)C)NC(=O)CNC(=O)[C@H](CCCCN)NC(=O)[C@H](CCCCN)NC(=O)[C@H](CC(N)=O)NC(=O)[C@H](C)NC(=O)CNC(=O)[C@H](CCCCN)NC(=O)[C@H](Cc2ccc(O)cc2)NC(=O)[C@H](CCCCN)NC(=O)[C@H](CCCNC(=N)N)NC(=O)[C@H](C)NC(=O)[C@H](CC(N)=O)NC(=O)[C@@H]2CCCN2C(=O)[C@H](Cc2c[nH]cn2)NC(=O)[C@H](CCC(=O)O)NC(=O)[C@@H](N)CCC(N)=O)CSSC[C@@H](C(=O)O)NC(=O)CNC(=O)[C@H](CC(C)C)NC(=O)CNC(=O)[C@H](CO)NC(=O)[C@H](CCSC)NC(=O)[C@H](CO)NC(=O)CNC1=O [compound 1510] was tested, and the EC50 was 0.05 nM and the “hNPR2 0% HSA. [EC50% rel CNP]” value was 139.2%.
For CC[C@H](C)[C@@H]1NC(=O)[C@H](CCCNC(=N)N)NC(=O)[C@H](CC(=O)O)NC(=O)[C@H](CC(C)C)NC(=O)[C@@H]2CCCN2C(=O)[C@H](CC(C)C)NC(=O)CNC(=O)[C@H](Cc2ccccc2)NC(=O)[C@@H](NC(=O)CNC(=O)[C@H](CCC(N)=O)NC(=O)[C@H](CO)NC(=O)[C@H](CO)NC(=O)CNC(=O)[C@H](CCCCN)NC(=O)[C@H](CCCCN)NC(=O)[C@H](CCC(N)=O)NC(=O)[C@H](C)NC(=O)CNC(=O)[C@H](CCCCN)NC(=O)[C@H](Cc2ccc(O)cc2)NC(=O)[C@H](Cc2c[nH]cn2)NC(=O)[C@H](CCCNC(=N)N)NC(=O)[C@H](C)NC(=O)[C@H](CCC(N)=O)NC(=O)[C@@H]2CCCN2C(=O)[C@H](Cc2c[nH]cn2)NC(=O)[C@H](CCC(=O)O)NC(=O)[C@H](CCC(N)=O)NC(=O)COCCOCCNC(=O)COCCOCCNC(=O)CC[C@H](NC(=O)CC[C@H](NC(=O)CC[C@H](NC(=O)CC[C@H](NC(=O)CCCCCCCCCCCCCCCCC(=O)O)C(=O)O)C(=O)O)C(=O)O)C(=O)O)CSSC[C@@H](C(=O)O)NC(=O)CNC(=O)[C@H](CC(C)C)NC(=O)CNC(=O)[C@H](CO)NC(=O)[C@H](CC(C)C)NC(=O)[C@H](CO)NC(=O)CNC1=O [compound 1398] ({C18 diacid-γGlu-γGlu-γGlu-γGlu-AEEA-AEEA}-QEHPQARHYKGAQKKGSSQGCFGLPLDRIGSLSGLGC-OH; disulfide 21-37), the “hNPR2 0% HSA. [EC50% rel CNP]” value was 55.6%.
With CC[C@H](C)[C@@H]1NC(=O)[C@H](CCCNC(=N)N)NC(=O)[C@H](CC(=O)O)NC(=O)[C@H](CC(C)C)NC(=O)[C@@H]2CCCN2C(=O)[C@H](CC(C)C)NC(=O)CNC(=O)[C@H](Cc2ccccc2)NC(=O)[C@@H](NC(=O)CNC(=O)[C@H](CO)NC(=O)[C@H](CO)NC(=O)[C@H](CC(C)C)NC(=O)CNC(=O)[C@H](CCCCN)NC(=O)[C@H](CCC(=O)O)NC(=O)[C@H](CCC(N)=O)NC(=O)[C@H](C)NC(=O)CNC(=O)[C@H](CCC(=O)O)NC(=O)COCCOCCNC(=O)COCCOCCNC(=O)CC[C@H](NC(=O)CCCCCCCCCCCCCCCCC(=O)O)C(=O)O)CSSC[C@@H](C(=O)O)NC(=O)CNC(=O)[C@H](CC(C)C)NC(=O)CNC(=O)[C@H](CO)NC(=O)[C@H](CC(C)C)NC(=O)[C@H](CO)NC(=O)CNC1=O [compound 1287] ({C18 diacid-γGlu-AEEA-AEEA}-EGAQEKGLSSGCFGLPLDRIGSLSGLGC-OH; disulfide 12-28) the “hNPR2 0% HSA. [EC50% rel CNP]” value was 2.9%.
CC[C@H](C)[C@@H]1NC(=O)[C@H](CCCNC(=N)N)NC(=O)[C@H](CCC(=O)O)NC(=O)[C@H](CC(C)C)NC(=O)[C@H](CCCCN)NC(=O)[C@H](CC(C)C)NC(=O)CNC(=O)[C@H](Cc2ccccc2)NC(=O)[C@@H](NC(=O)CNC(=O)[C@H](CCCCN)NC(=O)[C@H](CO)NC(=O)[C@H](CC(C)C)NC(=O)CNC(=O)[C@H](Cc2c[nH]cn2)NC(=O)[C@H](Cc2c[nH]cn2)NC(=O)[C@H](CCC(N)=O)NC(=O)[C@H](C)NC(=O)CNC(=O)[C@H](Cc2c[nH]cn2)NC(=O)[C@H](Cc2ccc(O)cc2)NC(=O)COCCOCCNC(=O)COCCOCCNC(=O)CC[C@H](NC(=O)CC[C@H](NC(=O)CCCCCCCCCCCCCCCCC(=O)O)C(=O)O)C(=O)O)CSSC[C@@H](C(=O)O)NC(=O)CNC(=O)[C@H](CC(C)C)NC(=O)CNC(=O)[C@H](CO)NC(=O)[C@H](CC(C)C)NC(=O)[C@H](CO)NC(=O)CNC1=O [compound 1323] ({C18 diacid-γGlu-γGlu-AEEA-AEEA}-YHGAQHHGLSKGCFGLKLERIGSLSGLGC-OH; disulfide 13-29; C-terminus assumed) was tested, and the EC50 was 11.2 nM and the “hNPR2 0% HSA. [EC50% rel CNP]” value was 0.8%.
For CC[C@H](C)[C@@H]1NC(=O)[C@H](CCCNC(=N)N)NC(=O)[C@H](CC(=O)O)NC(=O)[C@H](CC(C)C)NC(=O)[C@H](CCCCN)NC(=O)[C@H](CC(C)C)NC(=O)CNC(=O)[C@H](Cc2ccccc2)NC(=O)[C@@H](NC(=O)CNC(=O)[C@H](CCCCN)NC(=O)[C@H](CO)NC(=O)[C@H](CC(C)C)NC(=O)CNC(=O)[C@H](CCCCN)NC(=O)[C@H](CCC(=O)O)NC(=O)[C@H](CCC(N)=O)NC(=O)[C@H](C)NC(=O)CNC(=O)[C@H](Cc2c[nH]cn2)NC(=O)[C@H](CCC(=O)O)NC(=O)COCCOCCNC(=O)COCCOCCNC(=O)CC[C@H](NC(=O)CCCCCCCCCCCCCCCCC(=O)O)C(=O)O)CSSC[C@@H](C(=O)O)NC(=O)CNC(=O)[C@H](CC(C)C)NC(=O)CNC(=O)[C@H](CO)NC(=O)[C@H](CC(C)C)NC(=O)[C@H](CO)NC(=O)CNC1=O [compound 1236] ({C18 diacid-γGlu-AEEA-AEEA}-EHGAQEKGLSKGCFGLKLDRIGSLSGLGC-OH; disulfide 13-29; C-terminus assumed), the EC50 was 3.4 nM and the “hNPR2 0% HSA. [EC50% rel CNP]” value was 6.1%.
